This passage reports EC50 results from ChEMBL document CHEMBL5723582, “Data for DCP probe T-10430” (2024).

One may read the EC50 as the concentration that produces a half-maximal response. The low end stands for higher potency in that assay, the high end for lower potency in that assay.

The target of this experiment is Leukotriene B4 receptor 1 (Homo sapiens, UniProt Q15722). Briefly: IP-One assay (LTB4R), antagonist mode at up to 50 µM ( vs. 300 nM LTB4). It counts as functional. Also on record: compound concentration < 50 uM.
Leukotriene B4 receptor 1, sequence (Q15722 whole entry): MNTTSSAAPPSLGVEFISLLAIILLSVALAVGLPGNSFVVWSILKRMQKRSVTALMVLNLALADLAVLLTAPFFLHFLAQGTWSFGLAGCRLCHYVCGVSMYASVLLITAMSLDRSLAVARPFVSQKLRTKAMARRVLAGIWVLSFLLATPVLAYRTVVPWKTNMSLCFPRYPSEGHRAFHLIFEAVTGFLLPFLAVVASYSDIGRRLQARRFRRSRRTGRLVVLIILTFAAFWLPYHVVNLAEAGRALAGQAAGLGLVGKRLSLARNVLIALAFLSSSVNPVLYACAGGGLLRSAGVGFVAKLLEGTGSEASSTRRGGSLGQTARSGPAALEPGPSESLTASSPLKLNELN

Regarding `CCCCC(=O)N1CC2(CCN(c3ccccc3-c3nnn[nH]3)CC2)C1`, the EC50 was > 50 µM (not active).
